Columns and labels:
Assay type in all cases: functional
Bacillus subtilis = assay: Antimicrobial activity against Bacillus subtilis
Staphylococcus aureus = assay: Antimicrobial activity against Staphylococcus aureus
Enterococcus faecalis = assay: Antimicrobial activity against Enterococcus faecalis
Escherichia coli = assay: Antimicrobial activity against Escherichia coli

MIC (Bacillus subtilis): 50 µg/mL | MIC (Staphylococcus aureus): 50 µg/mL | MIC (Enterococcus faecalis): 50 µg/mL | MIC (Escherichia coli): 50 µg/mL
SMILES: C=C(C)[C@H]1COc2c(C)cc3oc4c(C[C@H](O)C(C)(C)O)ccc(O)c4c(=O)c3c2[C@@H]1O.O [TAJIXANTHONE HYDRATE]
